Reference: patent US20110189243A1, “PHARMACEUTICAL FORMULATION FOR LOWERING PULMONARY BLOOD PRESSURE” (Ratiopharm GMBH, priority 2008, published 2011)

Assay: Particle size by laser diffractometry (Malvern Mastersizer 2000)
Format: physicochemical
Conditions: after milling 30 minutes at 350 rpm in a Retsch ball mill
Experimental: The expression “average particle diameter” relates in the context of this invention to the D50 value of the volume-average particle diameter determined by means of laser diffractometry. In particular, a Malvern Instruments Mastersizer 2000 was used to determine the diameter (wet measurement, 2,000 rpm, ultrasound 60 sec., preferably shading 4 to 13%, preferably dispersion in liquid paraffin, the evaluation using the Fraunhofer method). The average particle diameter, which is also referred to as the D50 value of the integral volume distribution, is defined in the context of this invention as the particle diameter at which 50% by volume of the particles have a smaller diameter than the diameter which corresponds to the D50 value. Similarly, 50% by volume of the particles than have a larger diameter than the D50 value. Analogously, the D10 value of the integral volume distribution is defined as the particle diameter at which 10% by volume of the particles have a smaller diameter than the diameter which corresponds to the D10 value. Accordingly, the D90 value of the integral volume distribution is defined as the particle diameter at which 90% by volume of the particles have a smaller diameter than the diameter which corresponds to the D90 value.

SMILES: COC(c1ccccc1)(c1ccccc1)[C@H](Oc1nc(C)cc(C)n1)C(=O)O [Example 3, (2S)-2-(4,6-dimethylpyrimidin-2-yl)oxy-3-methoxy-3,3-di(phenyl)propanoic acid]
- particle size d10: 5 μm
- particle size d50: 18 μm
- particle size d90: 63 μm
